According to PubChem BioAssay (NCI):
Where “and” joins values, the source holds several entries; their conditions need not be identical. Equal entries are not always repeated.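 48-hour exposure; five concentrations; linearly interpolated endpoints. GI50 is the concentration that inhibits growth by half. TGI: total growth inhibition.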

Legend:
Assay in all cases: NCI-60 cell line screen, 48 h
SK-MEL-5 melanoma = test system: SK-MEL-5 melanoma
SK-MEL-28 melanoma = test system: SK-MEL-28 melanoma
OVCAR-8 ovarian = test system: OVCAR-8 ovarian
UACC-62 melanoma = test system: UACC-62 melanoma
HT29 colon = test system: HT29 colon
CCRF-CEM leukemia = test system: CCRF-CEM leukemia
NCI-H522 lung = test system: NCI-H522 lung
HOP-18 NSCLC = test system: HOP-18 NSCLC
HL-60(TB) leukemia = test system: HL-60(TB) leukemia
NCI-H460 lung = test system: NCI-H460 lung
CAKI-1 renal = test system: CAKI-1 renal
SF-539 CNS = test system: SF-539 CNS

Structure (SMILES) | TGI (SK-MEL-5 melanoma) | TGI (SK-MEL-28 melanoma) | TGI (OVCAR-8 ovarian) | TGI (UACC-62 melanoma) | TGI (HT29 colon) | TGI (CCRF-CEM leukemia) | TGI (NCI-H522 lung) | TGI (HOP-18 NSCLC) | TGI (HL-60(TB) leukemia) | TGI (NCI-H460 lung) | TGI (CAKI-1 renal) | TGI (SF-539 CNS) | GI50 (SK-MEL-5 melanoma) | GI50 (SK-MEL-28 melanoma) | GI50 (OVCAR-8 ovarian) | GI50 (UACC-62 melanoma) | GI50 (HT29 colon) | GI50 (NCI-H522 lung) | GI50 (HL-60(TB) leukemia) | GI50 (SF-539 CNS)
CC1(C)OB(O)OC1(C)C | > 100 µM | > 100 µM | > 100 µM | > 100 µM | > 100 µM | > 100 µM | > 100 µM | > 100 µM | > 100 µM | > 100 µM | > 100 µM | > 100 µM | – | – | – | – | – | – | – | –
C=C1C(=O)OC2/C=C(/C)C3CC(O)C(C)(CC(OC(=O)/C(C)=C/C)C12)O3 (configuration not stated) | 16.2 µM | 8.35 µM | 3.99 µM | 5.22 µM | 13.1 µM | 8.1 µM | 6.12 µM | 31.2 µM | 18.3 µM | 18.3 µM | 4.86 µM | 4.86 µM | – | – | – | – | – | – | – | –
CC(C)CCC[C@@H](C)C1CCC2[C@@H]3CC=C4C[C@@H](C(=O)NCC[N+](C)(C)CCCS(=O)(=O)[O-])CC[C@]4(C)C3CC[C@@]21C (some centres not stated) | 41.4 µM | 34.5 µM | 35 µM | 34.7 µM | 33 µM | 31.5 µM | 23.6 µM | 35.8 µM | 28.3 µM | 30.6 µM | 27.2 µM | 36.6 µM | – | – | – | – | – | – | – | –
CCN(CC)CCCC(C)Nc1ccnc2ccc3nn(C)nc3c12 (configuration not stated) | > 100 µM | – | > 100 µM | > 100 µM | > 100 µM | > 100 µM | – | > 100 µM | > 100 µM | > 100 µM | > 100 µM | > 100 µM | – | – | – | – | – | – | – | –
COC1C(O)C(C)OC(OC2C(Oc3cccc4c(O)c5c(=O)oc6ccc(C)c7c(=O)oc(c34)c5c67)OC(C)C(O)C2O)C1O (configuration not stated) | 6.38 µM and 4.19 µM | 6.85 µM and 4.93 µM | 52.8 µM and 5.65 µM | 3.26 µM and 3.56 µM | 13.8 µM | 14.4 µM and 5.06 µM | 2.74 µM and 3.67 µM | 8.35 µM | 27.4 µM and 6.95 µM | 9.07 µM and 13.1 µM | – | 5.52 µM and 5.55 µM | 1.91 µM | 1.87 µM | 1.65 µM | 1.35 µM | 1.94 µM | 0.747 µM | 4.08 µM | 1.19 µM
CC1=C(C(=O)Nc2cc(=O)n(C)c(=O)n2C)C(c2ccc([N+](=O)[O-])cc2)C(C(=O)Nc2cc(=O)n(C)c(=O)n2C)=C(C)N1 | – | > 100 µM | > 100 µM | > 100 µM | > 100 µM | > 100 µM | > 100 µM | > 100 µM | > 100 µM | > 100 µM | – | > 100 µM | – | – | – | – | – | – | – | –
O=C(Cc1csc(-c2nc(CC(=O)NNc3ccccc3)cs2)n1)NNc1ccccc1 | > 100 µM | > 100 µM | > 100 µM | > 100 µM | > 100 µM | > 100 µM | 43.5 µM | > 100 µM | > 100 µM | 60.4 µM | > 100 µM | > 100 µM | – | – | – | – | – | – | – | –
CC(=O)c1ccc2c(ccc(=O)n2C)c1 | > 100 µM | > 100 µM | > 100 µM | > 100 µM | > 100 µM | > 100 µM | > 100 µM | > 100 µM | > 100 µM | > 100 µM | > 100 µM | > 100 µM | – | – | – | – | – | – | – | –
c1ccc(C2=NOC3(c4ccccc4)SC4CCCCC4CN23)cc1 (configuration not stated) | 28.7 µM | > 100 µM | – | 83.1 µM | > 100 µM | 31.6 µM | 22.6 µM | > 100 µM | > 100 µM | > 100 µM | 63.8 µM | 39.2 µM | – | – | – | – | – | – | – | –
COc1ccc(C2Oc3cc(OC)c(O)c(C)c3[C@H]2C)cc1 (some centres not stated) | > 100 µM | > 100 µM | > 100 µM | > 100 µM | > 100 µM | > 100 µM | > 100 µM | > 100 µM | 76.7 µM | > 100 µM | > 100 µM | > 100 µM | – | – | – | – | – | – | – | –
